# Article PMC2074379 (British Journal of Cancer, 1996)
# System: serine carboxypeptidase
# Experiment: Effect of PMSF on the in vitro metabolism of antagonist D in 2% mouse liver homogenate
# Format: biochemical
# Details: antagonist D 100 µg in 1.0 ml 2% w/v mouse liver homogenate in PBS, 37°C; PMSF 0-2.5 mM preincubated 15 min at 23°C; HPLC; mean of two to four experiments
# Excerpt: British Journal of Cancer (1996) 73, 715-720 ? 1996 Stockton Press All rights reserved 0007-0920/96 $12.00 % Metabolism of the broad-spectrum neuropeptide growth factor antagonist: ID-Arg1, D-Phe5, D-Trp7'9, Leull"-substance P DA Jones', J Cummings', SP Langdon', AJ Maclellan', T Higgins2, E Rozengurt2 and JF Smyth' 'Imperial Cancer Research Fund, Medical Oncology Unit, Western General Hospital, Edinburgh EH4 2XU; 2Imperial Cancer Research Fund, PO Box 123, Lincoln's Inn Fields, London WC2A 3PX, UK. Summary Broad-spectrum neuropeptide growth factor antagonists, such as [D-Arg', D-Phe5, D-Trp7'9, Leu']substance P (antagonist D) and [Arg6, D-Trp7'9, NmePhe8]substance p(6- 11) (antagonist G), are currently being investigated as possible anti-tumour agents. These compounds are hoped to be effective against neuropeptide-driven cancers such as small-cell lung cancer. […] The in vitro metabolism of antagonist D has been characterised and the structures of two major metabolites have been elucidated by amino acid analysis and mass spectrometry. […] HPLC The HPLC system used consisted of two 510 HPLC pumps, a 712 WISP autosampler, a TCM column heater (all Waters, Northwich, UK) and a model 1046A fluorescence detector (Hewlett Packard, Walborn, Germany). […]
compound,measurement,value
"O=S(=O)(F)Cc1ccccc1 [PMSF, phenylmethylsulfonylfluoride]",PMSF concentration sufficient to cause almost complete arrest of the metabolism of antagonist D,1.0 mM
